Experiment [1] deals with H9c2. In words: cells. Format: functional, cell-based. The following applies: Rattus norvegicus, H9c2, Myocardium.
The nature of experiment [2]: NIH-3T3 fibroblast cytotoxicity, dose response, cytotoxicity control, cell-based, fluorescence, Alamar Blue, secondary assay (AID 2327).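 Further: NIH-3T3 mouse fibroblasts cultured with fluconazole at 8 µg/mL.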 In kind it is functional.
Experiment [3] is described as follows: C. albicans growth with fluconazole, confirmation, fluorescence, retest (AID 2467). Format: functional, cell-based.
For experiment [4], the target named is FAD-linked sulfhydryl oxidase ALR (Homo sapiens, UniProt P55789). Nature of the experiment: inhibitors of human ALR sulfhydryl oxidase, dose response, biochemical, H2O2 detection, luminescence, cherry-pick (AID 493248).
Sequence of FAD-linked sulfhydryl oxidase ALR (P55789 whole entry): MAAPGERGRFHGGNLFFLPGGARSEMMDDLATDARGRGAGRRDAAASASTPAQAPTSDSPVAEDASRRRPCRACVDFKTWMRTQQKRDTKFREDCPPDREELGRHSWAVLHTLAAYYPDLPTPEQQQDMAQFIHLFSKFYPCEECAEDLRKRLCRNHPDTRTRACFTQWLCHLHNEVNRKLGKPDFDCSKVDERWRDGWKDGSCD
In experiment [5] the target is Cytochrome P450 2D6 (Homo sapiens, UniProt P10635).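 Further: CYP2D6 member of a cytochrome P450 panel assay.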
Sequence of Cytochrome P450 2D6 (P10635 whole entry): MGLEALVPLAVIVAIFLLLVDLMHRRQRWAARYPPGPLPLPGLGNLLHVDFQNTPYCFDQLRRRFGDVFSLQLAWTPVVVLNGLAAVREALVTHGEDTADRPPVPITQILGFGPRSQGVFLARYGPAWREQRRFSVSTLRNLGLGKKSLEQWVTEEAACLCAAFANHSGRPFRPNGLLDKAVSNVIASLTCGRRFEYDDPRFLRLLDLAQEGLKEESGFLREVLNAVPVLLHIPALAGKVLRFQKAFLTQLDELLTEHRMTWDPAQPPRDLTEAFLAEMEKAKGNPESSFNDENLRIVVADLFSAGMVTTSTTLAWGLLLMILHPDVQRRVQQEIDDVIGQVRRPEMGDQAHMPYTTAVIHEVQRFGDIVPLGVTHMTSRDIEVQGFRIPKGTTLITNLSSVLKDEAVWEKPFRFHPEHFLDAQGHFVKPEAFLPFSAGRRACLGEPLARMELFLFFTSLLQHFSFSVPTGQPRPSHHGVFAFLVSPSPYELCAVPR
The target of experiment [6] is Luciferin 4-monooxygenase (Photinus pyralis, UniProt P08659). Nature of the experiment: firefly luciferase enzyme inhibitors, dose response, biochemical, luminescence (AID 1891).
Sequence of Luciferin 4-monooxygenase (P08659 whole entry): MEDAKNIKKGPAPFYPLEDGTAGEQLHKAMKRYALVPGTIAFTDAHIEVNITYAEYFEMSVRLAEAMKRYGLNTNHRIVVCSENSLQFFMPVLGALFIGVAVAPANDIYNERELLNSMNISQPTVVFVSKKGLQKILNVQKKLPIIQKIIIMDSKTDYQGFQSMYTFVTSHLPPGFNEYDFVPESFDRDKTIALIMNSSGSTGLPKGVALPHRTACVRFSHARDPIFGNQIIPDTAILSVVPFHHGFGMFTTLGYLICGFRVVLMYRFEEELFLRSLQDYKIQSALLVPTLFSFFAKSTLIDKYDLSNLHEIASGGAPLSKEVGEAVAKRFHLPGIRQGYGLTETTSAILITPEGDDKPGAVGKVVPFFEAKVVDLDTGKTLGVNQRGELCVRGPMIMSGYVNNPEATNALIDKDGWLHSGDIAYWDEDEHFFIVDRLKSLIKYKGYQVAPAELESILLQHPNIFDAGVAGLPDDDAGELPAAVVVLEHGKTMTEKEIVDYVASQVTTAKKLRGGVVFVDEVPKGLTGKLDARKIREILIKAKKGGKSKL
The nature of experiment [7]: Luminescence Cell-Based Dose Confirmation HTS to Identify Inhibitors of Platelet Dense Granule Release. [Related pubchem assays: 1663 (Primary HTS), 1678 (Summary of Project)]. Format: functional.
For experiment [8], the target named is T1, Cytochrome P450 1A2 (Homo sapiens, UniProt P05177).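 Further: PubChem cytochrome P450 panel assay, CYP1A2 panel member.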
T1 sequence (P05177 whole entry): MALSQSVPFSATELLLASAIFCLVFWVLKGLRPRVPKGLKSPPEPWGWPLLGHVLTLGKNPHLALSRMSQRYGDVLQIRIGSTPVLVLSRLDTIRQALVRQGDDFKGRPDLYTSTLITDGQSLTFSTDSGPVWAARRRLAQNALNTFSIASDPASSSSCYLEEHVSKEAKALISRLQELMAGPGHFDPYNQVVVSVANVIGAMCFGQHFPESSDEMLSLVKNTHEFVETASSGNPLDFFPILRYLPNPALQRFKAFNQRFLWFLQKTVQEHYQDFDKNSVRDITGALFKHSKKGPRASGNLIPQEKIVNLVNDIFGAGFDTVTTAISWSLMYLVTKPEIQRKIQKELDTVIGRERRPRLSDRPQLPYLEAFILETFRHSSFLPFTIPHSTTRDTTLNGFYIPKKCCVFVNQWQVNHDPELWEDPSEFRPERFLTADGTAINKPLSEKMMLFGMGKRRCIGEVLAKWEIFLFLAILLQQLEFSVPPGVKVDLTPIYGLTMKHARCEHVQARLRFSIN

The target in experiment [9] is Cytochrome P450 2C19 (Homo sapiens, UniProt P33261). In words: Cytochrome panel assay with activity outcomes. Panel member name: p450-cyp2c19 Compounds with AC50 equal or less than 10 uM are considered active. In kind it is functional. The following applies: read-out: AC50.
Sequence of Cytochrome P450 2C19 (P33261 whole entry): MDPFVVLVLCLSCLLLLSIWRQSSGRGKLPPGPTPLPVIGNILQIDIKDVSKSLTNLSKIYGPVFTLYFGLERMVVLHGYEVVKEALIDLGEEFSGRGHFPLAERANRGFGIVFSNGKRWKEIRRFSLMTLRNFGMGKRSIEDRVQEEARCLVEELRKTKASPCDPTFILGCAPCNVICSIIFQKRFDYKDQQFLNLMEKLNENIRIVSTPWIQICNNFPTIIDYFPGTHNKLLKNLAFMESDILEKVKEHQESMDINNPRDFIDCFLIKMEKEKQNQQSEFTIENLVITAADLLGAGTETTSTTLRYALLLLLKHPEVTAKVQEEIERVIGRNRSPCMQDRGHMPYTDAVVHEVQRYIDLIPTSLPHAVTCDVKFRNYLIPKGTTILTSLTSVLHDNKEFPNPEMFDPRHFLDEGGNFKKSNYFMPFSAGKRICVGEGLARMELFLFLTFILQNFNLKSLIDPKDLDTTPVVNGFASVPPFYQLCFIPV
For experiment [10], the target named is Cytochrome P450 3A4 (Homo sapiens, UniProt P08684).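 Further: CYP3A4 tested as one member of a cytochrome P450 panel screen.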
Sequence of Cytochrome P450 3A4 (P08684 whole entry): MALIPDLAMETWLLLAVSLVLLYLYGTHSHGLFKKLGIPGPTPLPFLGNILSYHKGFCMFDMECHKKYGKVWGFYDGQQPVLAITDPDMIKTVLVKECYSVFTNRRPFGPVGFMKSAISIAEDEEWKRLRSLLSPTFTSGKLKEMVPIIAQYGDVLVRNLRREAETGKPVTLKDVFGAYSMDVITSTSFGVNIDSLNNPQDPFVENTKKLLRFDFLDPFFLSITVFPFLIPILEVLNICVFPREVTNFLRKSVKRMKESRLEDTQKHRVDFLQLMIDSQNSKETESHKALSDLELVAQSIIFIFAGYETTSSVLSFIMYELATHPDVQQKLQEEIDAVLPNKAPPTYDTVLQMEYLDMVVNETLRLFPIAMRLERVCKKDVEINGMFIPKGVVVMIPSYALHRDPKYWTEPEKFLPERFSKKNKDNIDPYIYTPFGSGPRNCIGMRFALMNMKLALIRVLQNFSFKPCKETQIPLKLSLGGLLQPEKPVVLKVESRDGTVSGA
Experiment [11] deals with T2, Rac GTPase-activating protein 1 (Homo sapiens, UniProt Q9H0H5).
T2 sequence (Q9H0H5 whole entry): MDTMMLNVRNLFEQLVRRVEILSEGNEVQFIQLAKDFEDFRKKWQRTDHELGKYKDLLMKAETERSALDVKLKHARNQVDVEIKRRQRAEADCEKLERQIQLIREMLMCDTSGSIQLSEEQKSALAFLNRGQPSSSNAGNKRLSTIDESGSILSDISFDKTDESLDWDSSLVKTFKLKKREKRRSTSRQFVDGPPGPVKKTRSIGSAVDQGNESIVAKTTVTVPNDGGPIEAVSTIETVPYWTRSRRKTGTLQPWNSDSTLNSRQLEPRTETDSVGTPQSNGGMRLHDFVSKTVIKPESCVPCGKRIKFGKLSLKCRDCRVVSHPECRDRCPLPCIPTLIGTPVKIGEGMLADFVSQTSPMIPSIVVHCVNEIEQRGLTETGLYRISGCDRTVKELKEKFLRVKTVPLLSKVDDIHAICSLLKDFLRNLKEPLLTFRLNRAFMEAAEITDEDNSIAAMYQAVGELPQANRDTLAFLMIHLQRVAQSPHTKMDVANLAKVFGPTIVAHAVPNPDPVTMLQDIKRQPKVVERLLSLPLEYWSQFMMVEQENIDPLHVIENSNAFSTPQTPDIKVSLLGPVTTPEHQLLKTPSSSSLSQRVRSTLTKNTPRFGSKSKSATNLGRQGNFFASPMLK
In words: MgcRacGAP GTPase-activating activity inhibitors, confirmation, biochemical, ADP Hunter fluorescence, primary and confirmatory (AID 624330). Format: functional.

Each structure is given as a SMILES string. Where “and” joins values, the source holds several entries; their conditions need not be identical. Identical values can stand only once. Calls of active or inactive are those of the source. Bounds are passed on as bounds.

Regarding `COc1ccc(C(=O)COC(=O)Cn2[nH]c(=O)c3ccccc3c2=O)c(OC)c1`, in experiment [1], the IC50 was 17.5 µM (active).
As for `Cc1cc2[nH]c(=O)c3ccccc3n2n1`, in [1], the IC50 is > 79 µM (inactive).
As for `Cc1nc(SCc2ccc(Cl)c(Cl)c2)ncc1C(=O)O`, the EC50 in experiment [2] was > 150 µM (inactive); in [3] it was 780 nM (active). The AC50 in experiment [4] was 27 nM (active).
`O=C(O)c1cccc(S(=O)(=O)Nc2ccc(O)c(Sc3nc4ccccc4s3)c2)c1`: the AC50 in experiment [4] is 176 nM (active).
With `O=C(N/N=C/c1cn(-c2ccccc2)nc1-c1cccnc1)c1ccccc1`, in experiment [1], the IC50 is > 79 µM (inactive).
On the same count and under the same terms, in the case of `Brc1ccc(CSc2ccc3nnc(-c4cccnc4)n3n2)cc1` it was > 79 µM (inactive).
For `COCC(=O)N1CCC2(CC1)CN(C(=O)Nc1ccccc1)C2`, the AC50 in experiment [5] was 39.8 µM (inconclusive).
Take `Oc1c(C(c2cccs2)N2CCOCC2)sc2ncnn12` (stereo unspecified): the EC50 in experiment [6] and in experiment [7] was > 112 µM (not active) throughout.
`Cc1c(C(=O)NN2CCOCC2)nn(-c2ccc(Cl)cc2Cl)c1-c1ccc(I)cc1`: the AC50 in experiment [5] was 12.6 µM (inconclusive); in experiment [8], 31.6 µM (inconclusive).
In the case of `O=[N+]([O-])c1c(O)nc(/C=C\c2cccc(F)c2)nc1O`, the AC50 in experiment [4] is 1760 nM (active).
Turning to `COc1cccc(Cn2c(=O)cnc3cncnc32)c1`, the AC50 is 25.1 µM (inconclusive) in [9], 25.1 µM (inconclusive) in [5] and 20 µM (inconclusive) in [10].
For `CCOC(=O)c1sc(=S)n(CC)c1NC(=O)C1CC1`, the EC50 in [6] and in experiment [7] was > 112 µM (not active) in each case.
As to `C=CCn1c(SCc2cccc(F)c2)nc2cc(C(=O)N3CCC(C(N)=O)CC3)ccc2c1=O`, in experiment [4], the concentration at half-maximal activity (AC50) was 2270 nM (active).
`Cc1onc(-c2ccccc2Cl)c1C(=O)N1CCc2ccccc2C1`: the concentration giving a half-maximal response (EC50) in experiment [6] and in [7] was > 112 µM (not active) throughout.
As to `COc1cc(-n2c(S)nnc2-c2ccccc2)c(OC)cc1Cl`, the AC50 in experiment [4] is 12300 nM (active).
With `COc1ccc(CCN(C)CCc2ccc(OC)c(OC)c2)cc1OC`, the AC50 in experiment [5] is 31.6 µM (inconclusive) and 12.6 µM (inconclusive); in [10], 15.8 µM (inconclusive) and 10 µM (inconclusive).
For the compound `C[N+](C)(C)CC[N+]1(C)Cc2c(Cl)c(Cl)c(Cl)c(Cl)c2C1` [CHLORISONDAMINE], the AC50 in experiment [9] was 5.01 µM (inconclusive); in experiment [5], 15.8 µM (inconclusive).
Take `c1ccc2nc(N3CCCC3)c(N3CCCC3)nc2c1`: in experiment [4], the AC50 was 34 nM (active).
As for `O=C(NCc1ccccc1)C(c1cccnc1)N(C(=O)c1ccccn1)c1ccc(F)cc1` (stereo unspecified), the EC50 in [6] and in experiment [7] was > 112 µM (not active) each time.
Take `O=C(OCC(=O)N1CCCCCC1)c1nnc(O)c2ccccc12`: the IC50 in experiment [1] was > 79 µM (inactive).
Consider `CN(CCCNC(=O)C1CCC(=O)N1Cc1ccccc1Cl)c1ccccc1` (stereo unspecified), for which the AC50 in [4] was 398 nM (active); in experiment [5], 8.91 µM (inconclusive).
`COc1ccc(C(=O)Nc2ccc3[nH]ccc3c2)cc1OC`: the concentration for a half-maximal effect (EC50) in experiment [6] and in experiment [7] was > 112 µM (not active) each time.
For `Cc1csc(SCC(=O)Nc2nc(-c3ccccc3)cs2)n1`, the EC50 in [6] and in experiment [7] was > 112 µM (not active) in each case.
On to `CN(C)c1ncc2ncc(=O)n(Cc3ccc(F)cc3)c2n1`, for which, in experiment [5], the AC50 was 12.6 µM (inconclusive).
In the case of `Nc1cccc(-c2cn3cccnc3n2)c1`, the AC50 in experiment [4] was 232 nM (active).
For `O=C1CSC(c2ccccn2)N1c1cccc(Cl)c1` (stereo unspecified), the AC50 in experiment [4] is 394 nM (active).
For the compound `COc1cccc(Cn2c(=O)c(-c3ccc(F)cc3)nc3cnc(N4CCNCC4)nc32)c1`, the half-maximal activity concentration (AC50) was 39.8 µM (inconclusive) in experiment [9], 25.1 µM (inconclusive) in [5] and 25.1 µM (inconclusive) in [8].
For the compound `COC(=O)[C@@]1(Cc2ccc(OC)cc2)[C@H]2c3cc(C(=O)N(C)C)n(Cc4c(CO)ncc(C)c4O)c3C[C@H]2CN1C(=O)c1ccccc1`, the AC50 in experiment [9] was 31.6 µM (inconclusive); in [5], 20 µM (inconclusive).
For `CCOc1c(OC(C)=O)ccc(/C=C/c2ccc3cccc(OC)c3n2)c1[N+](=O)[O-]`, the values for the EC50 in experiment [6] and in [7] were > 112 µM (not active) and 17.6 µM (active), respectively.
As to `CC1CCCC(C)N1C(=O)COC(=O)c1nnc(O)c2ccccc12` (stereo unspecified), the IC50 in [1] was > 79 µM (inactive).
Consider `CCn1c(O)c(/C=N/N=C2CCCC2)c2ccc(C3=NNC(=O)CC3)cc21`, for which, in [1], the IC50 was > 79 µM (inactive). Besides, the AC50 in [10] is 7.08 µM (inconclusive).
Take `O=C(OCc1cc(=O)n2ccsc2n1)c1ccc(O)cc1O`: in experiment [1], the IC50 is > 79 µM (inactive).
For the compound `O=C(c1ccncc1)N1CCC2(CCCN(c3ccccn3)C2)CC1`, the AC50 in experiment [5] is 25.1 µM (inconclusive).
`CCc1ccc(-c2cc(C)no2)cc1S(=O)(=O)NCCN1CCC(C)CC1`: the EC50 in [6] and in [7] was > 112 µM (not active) throughout.
Turning to `CCn1c(SCc2cccc(C(=O)O)c2)nnc1-c1ccccc1`, the EC50 in [6] and in [7] was > 112 µM (not active) each time.
`C/C(=N\Nc1nc2ccccc2[nH]1)c1ccc(C)o1`: in experiment [4], the concentration at half-maximal activity (AC50) is 299 nM (active). The IC50 in [11] is 69 µM (active).
For the compound `COc1ccccc1C(=O)COC(=O)Cn1[nH]c(=O)c2ccccc2c1=O`, the IC50 in experiment [1] is 18.5 µM (active).
`O=C1CN=C(Nc2ccccc2)N1Cc1cccs1`: the half-maximal activity concentration (AC50) in experiment [5] is 25.1 µM (inconclusive).
As to `CC(=O)N1N=C(c2ccncc2)OC12CCCC2`, the EC50 in experiment [6] and in [7] was > 112 µM (not active) each time.
With `Sc1nncn1/N=C/c1ccccn1`, the half-maximal activity concentration (AC50) in [4] is 3060 nM (active).
Same read-out and setting: in the case of `Clc1ccc(/C=C/c2ncc3ccccn23)cc1` it was 8170 nM (active).
`O=C(O)CC/C=C\C[C@@H]1CO[C@H](c2ccccc2Cl)O[C@@H]1c1ccccc1O`: the figures for the AC50 in experiment [5], in [8] and in experiment [10] were 20 µM (inconclusive), 39.8 µM (inconclusive) and 15.8 µM (inconclusive), respectively.
Take `COc1cccc(Nc2nc3ccccc3n3cnnc23)c1`: the IC50 in experiment [1] was > 79 µM (inactive).
As for `COc1ccccc1CNc1cc(-c2ccc(C(=O)N(C)C)cc2)ncn1`, the AC50 in experiment [5] is 12.6 µM (inconclusive).
As to `CCN1CCCC1CNC(=O)CS(=O)(=O)Cc1nc(-c2ccccc2C)oc1C` (stereo unspecified), the results for the EC50 in [6] and in experiment [7] were > 112 µM (not active) and 64.8 µM (active), respectively.

The values are drawn from ChEMBL document CHEMBL1201862, “PubChem BioAssay data set” (2004).
